According to US20060052459A1, “Antifungal medicaments comprising arylamidine derivatives” (priority 2002, published 2006):
Like-named read-outs stand apart in the source and are kept apart here.

Experiments:
[1] = test system: Aspergillus fumigatus strain IP 864.64; test: In vitro antifungal growth inhibition on microtitre plates (optical density 590 nm), compounds alone or as mixtures (Wadley method); assay type: cell-based; conditions: Aspergillus fumigatus, IP864.64, 48 h, 48 hours at 30° C.; for inhibition at 0.026 µg/mL: dose 0.026 μg/ml; for inhibition at 0.098 µg/mL: dose 0.098 μg/ml; for inhibition at 0.39 µg/mL: dose 0.39 μg/ml; for inhibition at 1.562 µg/mL: dose 1.562 μg/ml; for inhibition at 6.25 µg/mL: dose 6.25 μg/ml; for inhibition at 25 µg/mL: dose 25 μg/ml; for inhibition at 100 µg/mL: dose 100 μg/ml; for EC50: read-out: EC50
Procedure: (§1) The following fungi were used for this study: Candida albicans strains IP 48.72 (ATCC 10231) and Aspergillus fumigatus strain IP 864.64 obtained from the Collection Nationale de Cultures de Microorganismes (CNCM) of the Institut Pasteur. The strains are cultured on Yeast Extract-Peptone-Dextrose (YEPD) agar medium comprising 0.5% yeast extract, 0.5% bactopeptone, 2% glucose and 2% agar at 30° C. and in the dark.
(§2) All these compounds were prepared in a DMSO solution at a final concentration of 100 mg/ml. The stock solutions are stored at −20° C. up to the time of use.
(§3) The trials are carried out in RPMI 1640 medium with no sodium bicarbonate, but with L-glutamine buffered with 0.165 mol per litre of 3-[N-morpholino]propanesulphonic acid (MOPS), enriched (<>) or otherwise (<>) with 2% glucose. The pH of this medium is adjusted to 7.0. The medium is sterilized by filtration (0.22 μm) and stored at 4° C. up to the time of use.
(§4) All the antifungal tests are carried out on microtitre plates. The initial suspensions of spores are prepared in a sterile solution containing 0.85% NaCl, supplemented with Tween 80 at 0.01%. These initial suspensions are then diluted in the culture medium (RPMI 1640 enriched or otherwise with 2% glucose) to a final concentration of 10^4 spores per ml. The measurements of viability of each inoculum are verified by subcultures of a volume of 300 μl on YEPD agar medium.
(§5) The antifungal compounds are tested in a range of concentrations ranging from 0.026 to 100 μg of active ingredient/ml. These antifungal compounds are then diluted in RPMI 1640 medium enriched or otherwise with 2% glucose. A final DMSO concentration of 0.2% is used throughout the measurements. Each trial is carried out on a series of dilutions of antifungal compounds, in duplicate. The antifungal dilutions (0.1 ml) and the fungal inoculum (0.1 ml) are added to each of the wells of the microtitre plate. The plates are then read with a spectrophotometer (ELX 800UV Bio-Tek Instruments, Inc) at a wavelength of 590 nm. The plates are read immediately after (t=0) and after 48 hours' incubation at 30° C. and in the dark. The optical density values obtained are correlated with fungal growth between the times t=0 and t=48 hours. The optical density values are used to calculate the percentage inhibition of growth for each concentration of antifungals by comparison with the control. The values are then used to plot a dose-response curve and the EC50 value is determined for each fungus and each compound with the aid of the Grafit 5.0® software (Erithacus software Ltd).
(§6) The method which was used to measure the type of interaction existing between the antifungal compounds in the form of mixtures is the Wadley method.
(§7) In the Wadley approach, the dose-response curve for each of the compounds A and B, and for the mixture AB, is constructed. The EC50 is calculated for each compound taken individually and for the mixture. If a and b are the absolute quantities of the compounds A and B in the mixture (a=1, b=1, a+b=2 under our conditions), the expected effective concentration (EC50exp) may be calculated in the following manner: EC50exp=(a+b)/[a/EC50A)+b/(EC50B)
(§8) The Wadley approach may be used to estimate the type of interaction existing between the fungal compounds, regardless of their concentration. Its reliability is not dependent on the percentage inhibition. The type of interaction between two compounds is given by the level of interaction (LI) which corresponds to the ratio between the expected effective concentration (EC50exp) and that observed (EC50obs) of the mixture. The nature of the interaction obtained by the Wadley formula is presented in Table 1 (see U. Gisi, Synergistic interaction in fungicide mixtures, 1996. Phytopathology 86, 1273-1279) below.
(§9) The experimental conditions are the same as previously described.

[2] = test system: Candida albicans strains IP 48.72 (ATCC 10231); test: as above; assay type: cell-based; conditions: Candida albicans, ATCC10231, 48 h, 48 hours at 30° C.; for inhibition at 0.026 µg/mL: dose 0.026 μg/ml; for inhibition at 0.098 µg/mL: dose 0.098 μg/ml; for inhibition at 0.39 µg/mL: dose 0.39 μg/ml; for inhibition at 1.562 µg/mL: dose 1.562 μg/ml; for inhibition at 6.25 µg/mL: dose 6.25 μg/ml; for inhibition at 25 µg/mL: dose 25 μg/ml; for inhibition at 100 µg/mL: dose 100 μg/ml; for EC50: read-out: EC50
Procedure: as §1, §2, §3, §4, §5, §6, §7, §8, §9

[3] = minimal RPMI 1640 medium (MM), used alone
[4] = rich RPMI 1640 medium (RM), used alone

CCC(C)n1ncn(-c2ccc(N3CCN(c4ccc(OCC5COC(Cn6cncn6)(c6ccc(Cl)cc6Cl)O5)cc4)CC3)cc2)c1=O (stereo not shown) [Compound II.2, itraconazole]
inhibition at 0.026 µg/mL ([1]; minimal RPMI 1640 medium (MM)): 2.2% | inhibition at 0.026 µg/mL ([1]; rich RPMI 1640 medium (RM)): 18.6% | inhibition at 0.098 µg/mL ([1]; minimal RPMI 1640 medium (MM)): 31.8% | inhibition at 0.098 µg/mL ([1]; rich RPMI 1640 medium (RM)): 47.5% | inhibition at 0.39 µg/mL ([1]; minimal RPMI 1640 medium (MM)): 49.3% | inhibition at 0.39 µg/mL ([1]; rich RPMI 1640 medium (RM)): 88.6% | inhibition at 1.562 µg/mL ([1]; minimal RPMI 1640 medium (MM)): 99.6% | inhibition at 1.562 µg/mL ([1]; rich RPMI 1640 medium (RM)): 99.2% | inhibition at 6.25 µg/mL ([1]; minimal RPMI 1640 medium (MM)): 100% | inhibition at 6.25 µg/mL ([1]; rich RPMI 1640 medium (RM)): 100% | inhibition at 25 µg/mL ([1]; minimal RPMI 1640 medium (MM)): 100% | inhibition at 25 µg/mL ([1]; rich RPMI 1640 medium (RM)): 100% | inhibition at 100 µg/mL ([1]; minimal RPMI 1640 medium (MM)): 99% | inhibition at 100 µg/mL ([1]; rich RPMI 1640 medium (RM)): 100% | EC50 [1, 3]: 0.27 µg/mL | EC50 [1, 4]: 0.27 µg/mL | EC50 ([1]; second study, strain IP 864.64, RPMI 1640 medium enriched with 2% glucose): 0.187 µg/mL | inhibition at 0.026 µg/mL ([2]; minimal RPMI 1640 medium (MM)): 58.1% | inhibition at 0.026 µg/mL ([2]; rich RPMI 1640 medium (RM)): 44.7% | inhibition at 0.098 µg/mL ([2]; minimal RPMI 1640 medium (MM)): 75.4% | inhibition at 0.098 µg/mL ([2]; rich RPMI 1640 medium (RM)): 85.1% | inhibition at 0.39 µg/mL ([2]; minimal RPMI 1640 medium (MM)): 78.2% | inhibition at 0.39 µg/mL ([2]; rich RPMI 1640 medium (RM)): 86.2% | inhibition at 1.562 µg/mL ([2]; minimal RPMI 1640 medium (MM)): 74.6% | inhibition at 1.562 µg/mL ([2]; rich RPMI 1640 medium (RM)): 85.1% | inhibition at 6.25 µg/mL ([2]; minimal RPMI 1640 medium (MM)): 78.6% | inhibition at 6.25 µg/mL ([2]; rich RPMI 1640 medium (RM)): 86.2% | inhibition at 25 µg/mL ([2]; minimal RPMI 1640 medium (MM)): 87.9% | inhibition at 25 µg/mL ([2]; rich RPMI 1640 medium (RM)): 95.2% | inhibition at 100 µg/mL ([2]; minimal RPMI 1640 medium (MM)): 95.2% | inhibition at 100 µg/mL ([2]; rich RPMI 1640 medium (RM)): 95.2% | EC50 [2, 3]: 0.022 µg/mL | EC50 [2, 4]: 0.017 µg/mL | EC50 ([2]; second study, strain IP 48.72, RPMI 1640 medium enriched with 2% glucose): 0.082 µg/mL
